Common to all, as to format: biochemical
The target of one assay is T1, Gox1615 (Gluconobacter oxydans, UniProt Q5FQJ0).
T1 sequence (Q5FQJ0 1-332): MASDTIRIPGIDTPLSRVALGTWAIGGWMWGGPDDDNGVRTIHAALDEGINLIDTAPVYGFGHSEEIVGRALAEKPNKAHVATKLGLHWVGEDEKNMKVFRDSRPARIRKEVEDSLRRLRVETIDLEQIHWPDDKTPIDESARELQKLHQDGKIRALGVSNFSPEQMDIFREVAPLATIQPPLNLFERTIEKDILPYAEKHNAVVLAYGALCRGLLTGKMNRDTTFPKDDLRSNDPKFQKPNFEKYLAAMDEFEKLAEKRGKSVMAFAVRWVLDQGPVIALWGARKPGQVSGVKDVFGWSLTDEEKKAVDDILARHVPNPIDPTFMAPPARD
In words: NADPH-dependent α-ketocarbonyl reductase activity assay (rate of decrease of NADPH at 340 nm). The note with it: for Specific Activity (U/mg)*: Table 5, cofactor NADPH, U/mg = µmol/mg·min; for Gox1615 U/mg*: Table 3, 10 mM substrate, 40 mM K-phosphate buffer pH 7.0, 0.05 mM NAD(P)H, 30 °C, U/mg = µmol x min^-1 x mg protein^-1. As to the method: Measurement of enzyme activity: NADPH-dependent α-ketocarbonyl reductases were assayed by a routine method used for NAD(P)-linked enzymes by recording the rate of decrease of NADPH at 340 nm (ε = 6.22 mM^-1 x cm^-1)) with substrates at 30 °C. The reaction mixture (1 ml) for reduction of α-ketocarbonyl substrates contained 10 mM substrate, 40 mM potassium phosphate buffer pH 7.0, 0.025 mM NAD(P)H and the enzyme. Reactions were induced by addition of enzyme or substrate. One unit was defined as the amount of enzyme activity catalyzing the conversion of 1 µmol of pyridine nucleotide per min at 30 °C. NMR Analysis of Biotransformation Products: Biotransformations were extracted with equal volumes of CDCl3. and ^13C NMR spectra were recorded on a Bruker Avance 300 DPX spectrometer operating at 300 MHz for ^1H NMR and at 75 MHz for ^13C NMR, respectively. Spectra were processed using Bruker TonSpin 1.3 for Windows software and calibrated to the residual solvent peak of CDCl3 (δH = 7.26 / δC = 77.0).
NADPH-dependent α-ketocarbonyl reductases were assayed by a routine method used for NAD(P)-linked enzymes by recording the rate of decrease of NADPH at 340 nm (ε = 6.22 mM^-1.cm^-1) with substrates at 30 °C. The reaction mixture (1 ml) for reduction of α-ketocarbonyl substrates contained 10 mM substrate, 40 mM potassium phosphate buffer pH 7.0, 0.025 mM NADPH, and the enzyme. Reactions were induced by addition of enzyme or substrate. One unit of activity was defined as the amount of enzyme activity catalyzing the conversion of 1 µmol of pyridine nucleotide per min at 30 °C.
Purified NAD(P)-dependent oxidoreductases were assayed at 30 °C by a routine method used for NAD(P)-linked enzymes by recording the rate of decrease of NAD(P)H at 340 nm (ε = 6.22 mM^-1˙cm^-1) with substrates capable of reduction reactions. The standard reaction mixture (1 ml) for the reduction reactions of substrates contained 10 mM substrate, 40 mM potassium phosphate buffer (K-phosphate buffer) pH 7.0, 0.05 mM NAD(P)H, and the enzyme unless otherwise noted. Reactions were induced by addition of enzyme or substrate. One unit of activity was defined as the amount of enzyme activity catalyzing the conversion of 1 µmol of pyridine nucleotide per min at 30 °C. Measurement of the protein content was performed by the method of Bradford (Bradford M.M., Anal. Biochem. 72:248-254 (1976)). Table 3: Enzymatic activities with α-diketones, α-ketoaldehydes and α-ketoesters

Assay [1] has as its target T2, Gox0644 (Gluconobacter oxydans, UniProt Q5FT75). The description is as above. The following applies: for Specific Activity (U/mg)*: Table 4, cofactor NADPH, U/mg = µmol/mg·min; for Gox0644 U/mg*: Table 3, 10 mM substrate, 40 mM K-phosphate buffer pH 7.0, 0.05 mM NAD(P)H, 30 °C, U/mg = µmol x min^-1 x mg protein^-1; for reduction by Gox0644: result in words. As to the method: Reactions were induced by addition of enzyme or substrate. One unit was defined as the amount of enzyme activity catalyzing the conversion of 1 µmol of pyridine nucleotide per min at 30 °C. NMR Analysis of Biotransformation Products: Biotransformations were extracted with equal volumes of CDCl3. and ^13C NMR spectra were recorded on a Bruker Avance 300 DPX spectrometer operating at 300 MHz for ^1H NMR and at 75 MHz for ^13C NMR, respectively.
Reactions were induced by addition of enzyme or substrate. One unit of activity was defined as the amount of enzyme activity catalyzing the conversion of 1 µmol of pyridine nucleotide per min at 30 °C.
The standard reaction mixture (1 ml) for the reduction reactions of substrates contained 10 mM substrate, 40 mM potassium phosphate buffer (K-phosphate buffer) pH 7.0, 0.05 mM NAD(P)H, and the enzyme unless otherwise noted. Reactions were induced by addition of enzyme or substrate. One unit of activity was defined as the amount of enzyme activity catalyzing the conversion of 1 µmol of pyridine nucleotide per min at 30 °C. […] Table 3: Enzymatic activities with α-diketones, α-ketoaldehydes and α-ketoesters

Another assay deals with T3, Gox1122 (Gluconobacter oxydans, UniProt Q5FRV6).
T3 sequence (Q5FRV6 1-463): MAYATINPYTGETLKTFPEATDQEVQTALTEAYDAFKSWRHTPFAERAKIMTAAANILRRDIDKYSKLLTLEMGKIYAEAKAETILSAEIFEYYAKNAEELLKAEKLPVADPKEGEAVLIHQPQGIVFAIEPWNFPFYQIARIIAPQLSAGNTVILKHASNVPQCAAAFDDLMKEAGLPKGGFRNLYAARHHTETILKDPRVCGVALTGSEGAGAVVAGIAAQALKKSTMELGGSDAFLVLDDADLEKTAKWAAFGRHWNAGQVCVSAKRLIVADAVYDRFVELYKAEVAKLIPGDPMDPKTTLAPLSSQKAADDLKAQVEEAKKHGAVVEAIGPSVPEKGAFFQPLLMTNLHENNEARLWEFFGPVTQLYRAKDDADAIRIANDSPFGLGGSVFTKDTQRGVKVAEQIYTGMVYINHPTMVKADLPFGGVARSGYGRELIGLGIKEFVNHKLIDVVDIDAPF
The assay can be described thus: Aldehyde dehydrogenase activity and kinetic constants. As to the method: The enzyme is used in a combined enzymatic reaction between the NADPH-dependent reductases (see above) that form α-hydroxy carbonyl compounds.
Determination of pH and temperature optima and enzyme kinetics: The optimum pH for enzyme activities was determined by a modified method of Salusjärvi, T. et al., Appl. Microbiol. Biotechnol. 65:306-314 (2004) using the following buffer system (50 mM final concentration each): sodium acetate pH 4.5 - 6.5, potassium phosphate pH 6.5 - 8.0, Tris-HCl pH 8.0 - 10. Temperature optima for the biocatalysts were determined under standard reaction conditions at temperatures ranging from 20 - 80 °C. The Michaelis constant (Km) for the proteins was determined from purified enzyme by Lineweaver-Burk plots. Assays were performed at optimum pH for each enzyme and at 30 °C using the best substrate and a targeted substrate. The Km for each substrate was calculated using concentrations of 0.0025 to 10 mM, and the Km NAD(P)H and NAD(P) was calculated using concentrations of 0.01 to 0.5 mM
2.9 Kinetic parameters of the keto carbonyl reductases: Kinetic constants were determined from purified enzyme by Lineweaver-Burk plots. The Km and Vmax values for the substrates were calculated using concentrations of 0.025 to 10 mM. […] 8.

Assay [2] deals with T2, Gox0644. The assay can be described thus: Acetaldehyde tolerance test. From the text: The products derived from the α-diketone and α-ketoaldehyde substrate reactions were generated according to the cofactor regeneration protocol. This method overcomes the dependence of the enzymes on reduced cofactor by coupling the substrate reactions of Gox0644 and Gox1615, with the cofactor NADP reduction reaction based on the acetaldehyde oxidoreductase Gox1122 using acetaldehyde. […] In both the reactions with phenylglyoxal and 2,3-pentanedione, Gox0644 activity remained similar to the control reaction consisting of a reaction without acetaldehyde (Tab. 9/10). […] In the reaction with 2,3-pentanedione there was a slight decrease of about 20% from the control, however, the activity levels were still very high at 50.2 U/mg. […] Table 9: Gox0644 acetaldehyde tolerance tests with phenylglyoxal

As a reminder, the Km is the concentration of substrate that gives half-maximal velocity.

“And” between values parts separate entries of the source, which are not always exact repeats. Equal entries are not always repeated. Where two headings read alike, the source gives them in different places.

For the compound `CC(=O)C(C)=O` [2,3-butanedione], the “Specific Activity (U/mg)*” value turned out to be 6.0 U/mg at Gox1615 and 60.0 U/mg at Gox0644 [1].
With `CCCC(=O)C(C)=O` [2,3-hexanedione], at Gox1615, the “Gox1615 U/mg*” value turned out to be 6.5 U/mg and the “Specific Activity (U/mg)*” value was determined as 6.5 U/mg. At Gox0644 [1], the “Gox0644 U/mg*” value is listed as 50.1 U/mg.
As for `O=C(O)C(=O)[C@@H](O)[C@H](O)C(=O)CO` [2,5-diketogluconate], the “reduction by Gox0644” value on Gox0644 [1] is recorded as “reduced”.
On to `CCC(=O)C(=O)O` [2-oxo butyric acid], for which, on Gox0644 [1], the “reduction by Gox0644” value was “not reduced”.
For `CCC(=O)C(=O)CC` [3,4-hexanedione], at Gox1615, the “Gox1615 U/mg*” value is 2.0 U/mg and the “Specific Activity (U/mg)*” value is 2.0 U/mg. In addition, the “Gox0644 U/mg*” value at Gox0644 [1] came to 7.3 U/mg.
In the case of `NC(=O)c1ccc[n+]([C@@H]2O[C@H](COP(=O)(O)OP(=O)(O)OC[C@H]3O[C@@H](n4cnc5c(N)ncnc54)[C@H](OP(=O)(O)O)[C@@H]3O)[C@@H](O)[C@H]2O)c1` [NADP], the Michaelis-Menten constant (Km) on Gox1122 (cofactor NADP, read-out: apparent Km value) amounted to 73 µM.
On to `CC=O` [acetaldehyde], for which the Gox0644 activity at Gox0644 [2] (substrate 2,3-pentanedione, 10mM acetaldehyde, control without acetaldehyde 65.7 U/mg) was 67.9 U/mg; at Gox0644 [2] (substrate 2,3-pentanedione, 30mM acetaldehyde, control without acetaldehyde 65.7 U/mg) it was 59.5 U/mg; at Gox0644 [2] (substrate 2,3-pentanedione, 50mM acetaldehyde, control without acetaldehyde 65.7 U/mg), 50.2 U/mg and 50.1 U/mg; on Gox0644 [2] (substrate phenylglyoxal, 10mM acetaldehyde, control without acetaldehyde 38.5 U/mg) it was 29.6 U/mg; on Gox0644 [2] (substrate phenylglyoxal, 30mM acetaldehyde, control without acetaldehyde 38.5 U/mg) it was 37.1 U/mg; at Gox0644 [2] (substrate phenylglyoxal, 50mM acetaldehyde, control without acetaldehyde 38.5 U/mg), 39.3 U/mg. The same compound returned a Gox0644 activity at Gox0644 [2] (substrate phenylglyoxal, 100mM acetaldehyde, control without acetaldehyde 38.5 U/mg) of 31.2 U/mg. The inhibition at 100000 µM at Gox0644 [2] (substrate phenylglyoxal, 100 mM of acetaldehyde, versus control, read-out: decrease in activity) was ≤ 20%. At Gox1122 (40 mM KPB at optimal pH and 30 °C), the Vmax turned out to be 196 µmol/min x mg. In addition, the Km worked out at 200 µM at Gox1122 (40 mM KPB at optimal pH and 30 °C, read-out: Km); 255 µM at Gox1122 (several concentrations of the aldehyde from 0.0025 to 10 mM, read-out: Km value). For the same compound, the “apparent Vmax value” at Gox1122 (fixed 0.5 mM NADP, acetaldehyde as the varied substrate) is listed as 196 U/mg protein.
For `CC(=O)O` [acetic acid], the reverse reduction reaction result at Gox1122 (using NADPH, pH range of 4-10) is on record as “No reverse reduction reaction”.
For the compound `CC(=O)C(C)O` (stereo not shown) [acetoin], the “reduction by Gox0644” value on Gox0644 [1] was “not reduced”.
Regarding `CC(C)=O` [acetone], on Gox0644 [1], the “reduction by Gox0644” value was “not reduced”.
Turning to `CC(=O)CC(C)=O` [acetylacetone], the “reduction by Gox0644” value at Gox0644 [1] is reported as “not reduced”.
For `O=C(C(=O)c1ccccc1)c1ccccc1` [benzil], the “Specific Activity (U/mg)*” value on Gox0644 [1] is recorded as 14.0 U/mg.
Consider `CCOC(=O)C(C)=O` [ethyl pyruvate], for which, at Gox1615, the “Gox1615 U/mg*” value came out at 1.2 U/mg and the “Specific Activity (U/mg)*” value stood at 1.2 U/mg. The “Gox0644 U/mg*” value at Gox0644 [1] came to 92.8 U/mg. The same compound had an activity at Gox0644 [1] (substrates showing the highest activities) of 93 U/mg protein.
With `O=CC=O` [glyoxal], the “Specific Activity (U/mg)*” value on Gox1615 was 5 U/mg; on Gox0644 [1] it was 1.1 U/mg.
As for `CC(=O)C(=O)OCCC(C)C` [isoamyl pyruvate], at Gox1615, the “Gox1615 U/mg*” value was found to be 4.7 U/mg and the “Specific Activity (U/mg)*” value was found to be 4.7 U/mg. Also, at Gox0644 [1], the “Gox0644 U/mg*” value worked out at 63.1 U/mg.

The values above are taken from EP2316926B1, “Enantioselective production of alpha-hydroxy carbonyl compounds” (priority 2009, dated 2011).
